Measurements as given in patent US6465716B2, “Nod factor binding protein from legume roots” (The Regents of the University of California, priority 1997, dated 2002).

Columns and labels:
NBP46 [1] = target: T1, NBP46 (Vigna unguiculata, UniProt Q9XFC9); test: phosphatase (phosphohydrolase) assay of NBP46; assay type: biochemical, Dolichos biflorus; conditions: in words; for hydrolysis of phosphate from substrate by NBP46 (phosphohydrolase activity): substrate specificity
Method: (§1) The sequence similarities found between NBP46 and the above enzymes prompted the testing of NBP46 for phosphohydrolase activity. The reactions were conducted in 300 μL of 60 mM MOPS, pH 6.8, containing 1 mM MgCl2 in a microtiter plate using a multichannel pipette. At various time points up to 4 minutes, 30 or 60 μL aliquots were removed and assayed for inorganic phosphate by a photometric microtiter assay (Drueckes, P., et al., Anal. Biochem. 230:173 (1995)). Conditions were chosen so that less than 10% of the total substrate was converted to product, and the initial velocity (v) was determined from the above rate measurements.
(§2) N-BP46 (201 ng/ml) was incubated at 25° C. in the presence of various concentrations of substrate in a final volume of 100 μl of 60 mM MOPS, pH 6.8, containing 1 mM MgCl2. The reactions were conducted in a microtiter plate using a multichannel pipette. At various time points, 30 μl aliquots were removed and assayed for inorganic phosphate by a photometric microtiter assay (Drueckes, P. et al. Anal. Biochem. 230:173 (1995)), modified by using four parts ammonium molybdate reagent to one part 10% ascorbate for the reagent mixture. Conditions were chosen so that less than 10% of the total substrate was converted to product.

NBP46 [2] = target: T1, NBP46; test: competitive binding assay with chitin as solid phase: inhibition of binding of 125I-NBP46 to chitin; parameters: species or system Dolichos biflorus; conditions: for inhibition of binding of 125I-NBP46 to chitin: relative inhibition, in words
Method: B. japonicum USDA110 Nod factor (^▪); R. sp. NGR234(NGRA) Nod factor (^▴); R. sp. NGR234(NGRB) Nod factor (∇); R. meliloti Nod factor (^●), N-acetylglucosamine (□), chitin disaccharide (^▾); chitin tetrasaccharide (Δ); chitin pentasaccharide (♦), chitin hexasaccharide (O).
Using chitin as a solid phase, a competitive binding assay was utilized to examine the carbohydrate specificity of this protein (FIG. 3).
Solid phase binding assays were conducted using iodinated NBP46 and purified shrimp chitin powder (Sigma Chemical Company, St. Louis, Mo.), which was N-acetylated prior to use with 15 mM acetic anhydride in 0.5 M NaHCO3 for one hour at room temperature. The assays were conducted in a final volume of 100 μl of 10 mM MOPS buffer, pH 7.2, containing 0.02% Tween-20 and 0.01% NaN3.

NBP46 [3] = target: T1, NBP46; test: competitive solid phase assay: inhibition of binding of 125I-NBP46 to HBG A+H-Sepharose; parameters: species or system Dolichos biflorus; conditions: up to 50 mM concentrations
Source text: In a preferred embodiment, a competitive solid phase assay is used to measure NBP46 activity (Etzler, M. E., Glycoconj. J. 11:395 (1994)). This assay measures the ability of various ligands to inhibit the binding of labeled NBP46 protein to pronase-digested hog gastric mucin blood group A+H substance (HBG A+H) conjugated to Sepharose® (Quinn, J. M. & Etzler, M. E., Arch. Biochem. Biophys. 258:535 (1987)).
The monomeric nature of NBP46 in solution precluded the use of conventional precipitin or agglutination assays in determining the carbohydrate binding specificity of this lectin. Therefore a complex carbohydrate binding assay was employed (Etzler, M. E., Glycoconj. J. 11:395 (1994)).
Hog blood group A+H substance was isolated from hog gastric mucin (Etzler, M. E., Glyconj. J. 11:395 (1994)) and de-N-acetylated as described in Etzler, M. E., et al., Arch. Biochem. Biophys. 141:588 (1970). After incubation at room temperature overnight, binding was measured as previously described (Etzler, M. E., Glyconj. J. 11:395 (1994)).

[4] = substrate: Nc1ncnc2c1ncn2[C@@H]1O[C@H](COP(=O)(O)OP(=O)(O)O)[C@@H](O)[C@H]1O; test: phosphatase (phosphohydrolase) assay of NBP46; assay type: biochemical, Dolichos biflorus; conditions: other: 60 mM MOPS, pH 6.8, 1 mM MgCl2, 25.0 °C
Method: as §1, §2

Molecule: Nc1ncnc2c1ncn2[C@@H]1O[C@H](COP(=O)(O)OP(=O)(O)O)[C@@H](O)[C@H]1O [ADP]
- hydrolysis of phosphate from substrate by NBP46 (phosphohydrolase activity) (NBP46 [1]): catalyzes the hydrolysis of phosphate

Molecule: Nc1ncnc2c1ncn2[C@@H]1O[C@H](COP(=O)(O)O)[C@@H](O)[C@H]1O [AMP]
- hydrolysis of phosphate from substrate by NBP46 (phosphohydrolase activity) (NBP46 [1]): no activity

Molecule: Nc1ncnc2c1ncn2[C@@H]1O[C@H](COP(=O)(O)OP(=O)(O)OP(=O)(O)O)[C@@H](O)[C@H]1O [ATP]
- hydrolysis of phosphate from substrate by NBP46 (phosphohydrolase activity) (NBP46 [1]): catalyzes the hydrolysis of phosphate

Molecule: Nc1ccn([C@@H]2O[C@H](COP(=O)(O)OP(=O)(O)OP(=O)(O)O)[C@@H](O)[C@H]2O)c(=O)n1 [CTP]
- hydrolysis of phosphate from substrate by NBP46 (phosphohydrolase activity) (NBP46 [1]): broad specificity for nucleotide triphosphates

Molecule: Nc1nc2c(ncn2[C@@H]2O[C@H](COP(=O)(O)OP(=O)(O)OP(=O)(O)O)[C@@H](O)[C@H]2O)c(=O)[nH]1 [GTP]
- hydrolysis of phosphate from substrate by NBP46 (phosphohydrolase activity) (NBP46 [1]): broad specificity for nucleotide triphosphates

Molecule: C[C@H](O)[C@@H](O)[C@@H](O)[C@H](O)C=O [L-fucose]
- inhibition of NBP46 binding to chitin (NBP46 [2]; concentrations up to 50 mM): No significant inhibition
- inhibition of binding of 125I-NBP46 to HBG A+H-Sepharose (NBP46 [3]): no significant inhibition

Molecule: CC(=O)N[C@H]1C(O)O[C@H](CO)[C@H](O)[C@@H]1O (stereo partly drawn) [N-acetyl-D-galactosamine]
- inhibition of binding of 125I-NBP46 to HBG A+H-Sepharose (NBP46 [3]): no significant inhibition

Molecule: CC(=O)N[C@@H]1[C@@H](O)[C@H](O)[C@@H](CO)O[C@H]1O [N-acetyl-D-glocosamine]
- inhibition of binding of 125I-NBP46 to chitin (NBP46 [2]): Inhibition of binding was obtained with high concentrations
- phosphatase activity / Vmax of NBP46 after preincubation with ligand (NBP46 [1]; concentration range as worded): increase in enzyme activity is also obtained with low millimolar concentrations

Molecule: O=c1ccn([C@@H]2O[C@H](COP(=O)(O)OP(=O)(O)OP(=O)(O)O)[C@@H](O)[C@H]2O)c(=O)[nH]1 [UTP]
- hydrolysis of phosphate from substrate by NBP46 (phosphohydrolase activity) (NBP46 [1]): broad specificity for nucleotide triphosphates

Molecule: CC(=O)N[C@H]1[C@H](O[C@H]2[C@H](O)[C@@H](NC(C)=O)C(O)O[C@@H]2CO)O[C@H](CO)[C@@H](O)[C@@H]1O (stereo partly drawn) [chitin disaccharide]
- inhibition of binding of 125I-NBP46 to chitin (NBP46 [2]): approximately ten-fold better inhibition than the monosaccharide

Molecule: CC(=O)NC1C(O)OC(CO)C(OC2OC(CO)C(OC3OC(CO)C(OC4OC(CO)C(OC5OC(CO)C(OC6OC(CO)C(O)C(O)C6NC(C)=O)C(O)C5NC(C)=O)C(O)C4NC(C)=O)C(O)C3NC(C)=O)C(O)C2NC(C)=O)C1O (stereo not drawn) [chitin hexasaccharide]
- inhibition of binding of 125I-NBP46 to chitin (NBP46 [2]): slightly better inhibitors than the disaccharide

Molecule: CC(=O)N[C@@H]1[C@@H](O)[C@H](O[C@@H]2O[C@H](CO)[C@@H](O[C@@H]3O[C@H](CO)[C@@H](O[C@@H]4O[C@H](CO)[C@@H](O[C@@H]5O[C@H](CO)[C@@H](O)[C@H](O)[C@H]5NC(C)=O)[C@H](O)[C@H]4NC(C)=O)[C@H](O)[C@H]3NC(C)=O)[C@H](O)[C@H]2NC(C)=O)[C@@H](CO)O[C@H]1O [chitin pentasaccharide]
- inhibition of binding of 125I-NBP46 to chitin (NBP46 [2]): slightly better inhibitors than the disaccharide

Molecule: CCCCCC/C=C\CCCCCCCCCC(=O)O [cis-vaccenic acid]
- inhibition of NBP46 binding to chitin (NBP46 [2]; concentrations up to 1.2 mM): No significant inhibition

Molecule: O=C[C@H](O)[C@@H](O)[C@H](O)[C@H](O)COP(=O)(O)O [glucose-6-phosphate]
- hydrolysis of phosphate from substrate by NBP46 (phosphohydrolase activity) (NBP46 [1]): no activity

Molecule: O=P(O)(O)OP(=O)(O)O [pyrophosphate]
- hydrolysis of phosphate from substrate by NBP46 (phosphohydrolase activity) (NBP46 [1]): no activity

B1: NBP46 (Vigna unguiculata subsp. cylindrica) (protein)
chain: QYVGNSILLNHRKILPNQELLTSYAVIFDAGSSGSRVHVFNFDQNLDLLHIGNDLEFTKKIKPGLSSYADKPEKAAESLIPLLEEAEDVVPEELHPKTPLKLGATAGLRLLDGDAAEKILQAVREMFRNRSSLSVQPDAVSVIDGTQEGSYLWVTVNYLLGKLGKKFTKTVGVIDLGGASVQMAYAVSRNTAKNAPKPPQGEDPYMKKLVLKGKKYDLYVHSYLRYGNDAARVKIFKTTDGAASPCLLAGYEDIYRYSGESYNIYGPTSGANFNECRDLALQILRLNEPCSHENCTFGGIWDGGKGSGQKNLVVTSAFYYRSSEVGFVTPPNSKNRPLDFETAAKQACSLTFEEAKSTFPNVEKDKLPFVCVDFTYQYTLLVDGFGLDPEQEITVAEGIEYQDAIVETAWPLGTAIEAISSLPKFNRLMYFI
- Km [4]: 615 µM
